The record followed here is patent publication US20190201431A1, “EX VIVO METHODS OF INDUCING IDO EXPRESSION IN ANTIGEN PRESENTING CELLS USING A COMPOUND SELECTED FROM THE GROUP CONSISTING OF AZACYTIDINE, AND DECITABINE” (IDOGEN AB, priority 2016, published 2019).

For one test, the system named is naïve CD4+ CD25− T cells. Kind of test: Conversion of CD4+CD25− T cells into CD4+FoxP3+ Tregs in vitro. The class given is cell-based. As for the experimental part:
To assess the effect of decitabine on the generation of Tregs, naïve CD4+ CD25− T cells were cultured with mitomycin C treated APCs plus IL-2, TGFβ and anti-CD3 in the presence or absence of decitabine and numbers of CD4^+FoxP3^+ Tregs were determined by FACS after 72 h. The RNA was isolated from cell lysate, and reverse transcribed to cDNA for RT-qPCR analysis using Taqman primer probes. Expression of genes encoding Foxp3 was normalized to HPRT expression and was calibrated relative to vehicle group.

The test system of test [1] is collagen-induced arthritis in DBA/1 mice. Kind of test: Treatment of collagen-induced arthritis in vivo. Conditions: 1 mg/kg for 4 days from day of arthritis onset, scored 10 days, vs vehicle (FIG. 3, P<0.05). The protocol:
DBA/1 mice were immunized with bovine type II collagen emulsified in complete Freund's adjuvant. The mice were treated with decitabine (1 mg/kg) for 4 days, starting on the day of arthritis onset. Treatment was then stopped. Negative controls received vehicle alone. Clinical scores were monitored for 10 days following onset of arthritis. A clinical scoring system was used as follows. Arthritis severity was scored by an experienced non-blinded investigator as follows: 0=normal, 1=slight swelling and/or erythema, 2=pronounced swelling, 3=ankylosis. All four limbs were scored, giving a maximum possible score of 12 per animal.

Test [2] has as its system IDO1 gene expression in THP-1 cells. In words: Induction of IDO1 in THP-1 cells (RT-qPCR). The class given is cell-based, human. Conditions: 96 hours; for concentration at which the highest level of IDO induction was observed: tested 0.1-10 micromolar; for increase of IDO1 gene expression (maximum over tested concentrations): compound alone. The protocol: THP-1 cells were harvested from appropriate number of T75 flasks. Cells were counted in a Bürker chamber, stained with 0.4% Trypan Blue. The appropriate number of cells for each experiment were transferred to a new tube and centrifuged at 1200 rpm, 5 min at room temperature (RT). The supernatant was discarded and fresh RPMI with 5% FBS were added to get a cell concentration of 2×10^5 cells/mL. The compound was added to the five separate wells in 6-well plates such that five different final concentrations were obtained after adding the cells. A control was added to one well in the 6-well plate to which cells were added. 1×10^6 cells per well were seeded out to achieve a total volume of 5 mL per well. The cells were incubated at 37° C. in 5% CO2 for 96 hours. After 96 hours the assay was stopped and the cells were lysed for the isolation of RNA.
Total RNA was extracted from THP-1 cells using the RNA RNeasy Mini extraction kit (Qiagen), according to the manufacturer's instructions. A SuperScript® VILO™ RT-kit (Thermo Fisher) was used to reverse transcribe 1 μg of total RNA to cDNA and qPCR was performed. The primers used for amplification of the human IDO1 gene were 5′-[…]-3′ (forward; SEQ ID No. 1) and 5′-[…]-3′ (reverse; SEQ ID No. 2). The primers used for amplification of the endogenous reference gene for human HPRT1 were 5′-[…]-3′ (forward; SEQ ID No. 3) and 5′-[…]-3′ (reverse; SEQ ID No. 4). In brief, RT-qPCR was performed in 20 μl reaction, consisting 10 μl PowerUp SYBR Green Master Mix, 0.5 μM of each primer, 4 μl diluted cDNA for amplification of IDO1 and 1.5 μl diluted cDNA for amplification of HPRT1. An iCycler iQ real-time detection system (Stratagene, Mx3000P, La Jolla, Calif., USA) with the following thermal profile: UDG incubation at 50° C. for 2 min, then denaturation at 95° C. for 5 min, followed by 45 cycles at 94° C. for 15 s, 58° C. for 30 s, and 60° C. for 30 s, was used to perform thermocycling and real-time detection of PCR products. After amplification a melting curve analysis was performed. The RT-qPCR experiments were always run in triplicate. IDO1 was normalised to the geometric means of two HPRT1 reference gene, using the ΔCt method. Within-group comparisons were normalized to one control sample, using the ΔΔCt method.
A general note: Real-time PCR tracks product formation cycle by cycle.

Molecules are shown by their SMILES.

In the case of `Nc1ncn([C@H]2C[C@H](O)[C@@H](CO)O2)c(=O)n1` [decitabine, 4-Amino-1-(2-deoxy-β-D-ribofuranosyl)-1,3,5-triazin-2(1H)-one], the “relative expression of the Foxp3 gene (RT-qPCR)” value in the test on naïve CD4+ CD25− T cells (normalized to HPRT, relative to vehicle group, vs control "nil" (FIG. 4C)) is listed as “increased in a dose-dependent manner”. Moreover, the “frequencies of CD4+FoxP3+ Tregs (FACS)” value in the test on naïve CD4+ CD25− T cells (with mitomycin C treated APCs, IL-2, TGFβ, anti-CD3, after 72 h, vs control "nil" (FIG. 4B)) was “increased in a dose-dependent manner”. Also, in test [1], the “disease severity (mean clinical score)” value is “successful in reducing disease severity”. Also, in test [2] (0.1-10 micromolar), the “dose dependence of IDO1 gene expression” value is “a dose-related response was observed”. Also, the “concentration at which the highest level of IDO induction was observed” value in test [2] was 10 µM. The “increase of IDO1 gene expression (maximum over tested concentrations)” value in test [2] (0.1-10 micromolar) is “up to 101 fold”. Also, the “IDO1 expression (fold change)” value in test [2] (decitabine 0.1 micromolar, vs DMSO control) is listed as 6 fold change; in test [2] (decitabine 0.3 micromolar, vs DMSO control) it was 16.4 fold change; in test [2] (decitabine 1 micromolar, vs DMSO control), 40 fold change; in test [2] (decitabine 3 micromolar, vs DMSO control) it was 87 fold change; in test [2] (decitabine 10 micromolar, vs DMSO control), 101 fold change.
For the compound `Nc1ncn([C@@H]2O[C@H](CO)[C@@H](O)[C@H]2O)c(=O)n1` [azacytidine, 4-Amino-1-(β-D-ribofuranosyl)-1,3,5-triazin-2(1H)-one], in test [2], the “concentration at which the highest level of IDO induction was observed” value came out at 1 µM. The “IDO1 expression (fold change)” value in test [2] (azacytidine 0.1 micromolar, vs H2O:HAc control) is 0.5 fold change; in test [2] (azacytidine 0.3 micromolar, vs H2O:HAc control), 1.2 fold change; in test [2] (azacytidine 1 micromolar, vs H2O:HAc control) it was 23 fold change; in test [2] (azacytidine 3 micromolar, vs H2O:HAc control) it was 6 fold change; in test [2] (azacytidine 10 micromolar, vs H2O:HAc control), 8.6 fold change. For the same compound, the “increase of IDO1 gene expression (maximum over tested concentrations)” value in test [2] (0.1-10 micromolar) is on record as “up to 23 fold”.
